Results published in ChEMBL document CHEMBL1667784, “Synthesis and structure-activity relationship of 2-thiopyrimidine-4-one analogs as antimicrobial and anticancer agents” (Eur J Med Chem, 2011).
≈ marks a conversion by molar mass, not a printed value.

Key:
[1] = Cytotoxicity against human HuCCa1 cells after 3 days by MTT assay; type: functional, cell-based; settings: HuCC-A1, 72 h
[2] = tested on: T47D; test: Cytotoxicity against human T47D cells after 3 days by MTT assay; type: functional, cell-based; settings: 72 h
[3] = tested on: Moraxella catarrhalis; test: Antimicrobial activity against Branhamella catarrhalis assessed as growth inhibition at 128 ug/ml by agar dilution method; type: functional
[4] = tested on: KB; test: Cytotoxicity against human KB cells after 3 days by MTT assay; type: functional, cell-based; settings: 72 h
[5] = tested on: A549; test: Cytotoxicity against human A549 cells after 3 days by MTT assay; type: functional, cell-based; settings: A549, 72 h
[6] = tested on: Plasmodium falciparum; test: Antimalarial activity against chloquine-resistant Plasmodium falciparum T9.94 infected in human erythrocyte assessed as decrease in parasite growth after 48 hrs by microscopy; type: functional, organism-based; settings: T9.94, 48 h
[7] = tested on: Streptococcus pyogenes; test: Antimicrobial activity against Streptococcus pyogenes assessed as growth inhibition at 128 ug/ml by agar dilution method; type: functional
[8] = tested on: Neisseria mucosa; test: Antimicrobial activity against Neisseria mucosa assessed as growth inhibition at 128 ug/ml by agar dilution method; type: functional
[9] = tested on: HepG2; test: Cytotoxicity against human HepG2 cells after 3 days by MTT assay; type: functional, cell-based; settings: HepG2, 72 h
[10] = tested on: P388; test: Cytotoxicity against mouse P388 cells after 3 days by MTT assay; type: functional, cell-based; settings: P388, 72 h
[11] = tested on: HL-60; test: Cytotoxicity against human HL60 cells after 3 days by MTT assay; type: functional, cell-based; settings: HL-60, 72 h
[12] = tested on: H69AR; test: Cytotoxicity against human H69AR cells after 3 days by MTT assay; type: functional, cell-based; settings: 72 h
[13] = tested on: HeLa; test: Cytotoxicity against human HeLa cells after 3 days by MTT assay; type: functional, cell-based; settings: 72 h
[14] = tested on: MDA-MB-231; test: Cytotoxicity against human MDA-MB-231 cells after 3 days by MTT assay; type: functional, cell-based; settings: MDA-MB-231, 72 h
[15] = Cytotoxicity against human HCC-S102 cells after 3 days by MTT assay; type: functional, cell-based; settings: HCC-S102, 72 h
[16] = tested on: Candida albicans; test: Antifungal activity against Candida albicans assessed as growth inhibition at 128 ug/ml by agar dilution method; type: functional
[17] = tested on: Moraxella catarrhalis; test: Antimicrobial activity against Branhamella catarrhalis assessed as growth inhibition at 64 ug/ml by agar dilution method; type: functional
[18] = tested on: Bacillus subtilis; test: Antimicrobial activity against Bacillus subtilis ATCC 6633 assessed as growth inhibition at 10 ug/ml by agar dilution method; type: functional
[19] = tested on: Moraxella catarrhalis; test: Antimicrobial activity against Branhamella catarrhalis assessed as growth inhibition at 10 ug/ml by agar dilution method; type: functional
[20] = tested on: Edwardsiella tarda; test: Antimicrobial activity against Edwardsiella tarda assessed as growth inhibition at 10 ug/ml by agar dilution method; type: functional
[21] = tested on: Staphylococcus aureus; test: Antimicrobial activity against Staphylococcus aureus ATCC 25923 assessed as growth inhibition at 10 ug/ml by agar dilution method; type: functional
[22] = tested on: Neisseria mucosa; test: Antimicrobial activity against Neisseria mucosa assessed as growth inhibition at 10 ug/ml by agar dilution method; type: functional
[23] = tested on: Streptococcus pyogenes; test: Antimicrobial activity against Streptococcus pyogenes assessed as growth inhibition at 10 ug/ml by agar dilution method; type: functional
[24] = tested on: Staphylococcus epidermidis; test: Antimicrobial activity against Staphylococcus epidermidis ATCC 12228 assessed as growth inhibition at 10 ug/ml by agar dilution method; type: functional

`CCCCSc1nccc(=O)[nH]1` gave an IC50 [1] of over 50 mg/L, an IC50 [2] of 5 mg/L (≈ 27.1 µM) and an inhibition at 128 µg/mL [3] of 100%. It also gave an IC50 [4] of 27 mg/L (≈ 147 µM), an IC50 [5] of over 50 mg/L and an IC50 [6] of 10 µM. For the same compound, the inhibition at 128 µg/mL [7] was 25%, the inhibition at 128 µg/mL [8] was 25% and the IC50 [9] was over 50 mg/L. The IC50 [10] was over 50 mg/L, the IC50 [11] was over 50 mg/L and the IC50 [12] was over 50 mg/L. For the same compound, the IC50 [13] was over 50 mg/L, the IC50 [14] was over 50 mg/L and the IC50 [15] was over 50 mg/L.
Compound `CCC(C)Sc1nccc(=O)[nH]1` (configuration not stated) has an IC50 [1] of over 50 mg/L, an IC50 [5] of over 50 mg/L and an IC50 [6] of 10 µM. It also gave an IC50 [9] of over 50 mg/L.
Compound `O=c1ccnc(SCC2CCCCC2)[nH]1` has an inhibition at 128 µg/mL [16] of 75%, an IC50 [1] of over 50 mg/L and an IC50 [2] of over 50 mg/L. It also gave an inhibition at 64 µg/mL [17] of 100%, an IC50 [4] of over 50 mg/L and an IC50 [5] of over 50 mg/L. For the same compound, the IC50 [6] was 10 µM, the inhibition at 128 µg/mL [7] was 100% and the inhibition at 128 µg/mL [8] was 25%. For the same compound, the IC50 [9] was over 50 mg/L, the IC50 [10] was 40.4 mg/L (≈ 180 µM) and the IC50 [11] was over 50 mg/L. It also gave an IC50 [12] of 50 mg/L (≈ 223 µM), an IC50 [13] of over 50 mg/L and an IC50 [14] of over 50 mg/L. The IC50 [15] was over 50 mg/L.
Work on `O=c1ccnc(SCc2ccccc2)[nH]1` yielded an IC50 [1] of over 50 mg/L, an IC50 [2] of over 50 mg/L and an inhibition at 128 µg/mL [3] of 50%. For the same compound, the IC50 [4] was over 50 mg/L, the IC50 [5] was over 50 mg/L and the IC50 [6] was 10 µM. For the same compound, the inhibition at 128 µg/mL [7] was 25%, the IC50 [9] was over 50 mg/L and the IC50 [10] was over 50 mg/L. The IC50 [11] was over 50 mg/L, the IC50 [12] was over 50 mg/L and the IC50 [13] was over 50 mg/L. For the same compound, the IC50 [14] was over 50 mg/L and the IC50 [15] was over 50 mg/L.
Work on `O=c1ccnc(SC23CC4CC(CC(C4)C2)C3)[nH]1` yielded an IC50 [1] of over 50 mg/L, an IC50 [2] of 32 mg/L (≈ 122 µM) and an inhibition at 128 µg/mL [3] of 75%. It also gave an IC50 [4] of over 50 mg/L, an IC50 [5] of over 50 mg/L and an IC50 [6] of 10 µM. The inhibition at 128 µg/mL [7] was 25%, the inhibition at 128 µg/mL [8] was 25% and the IC50 [9] was 32.5 mg/L (≈ 124 µM). For the same compound, the IC50 [10] was 36.9 mg/L (≈ 141 µM), the IC50 [11] was over 50 mg/L and the IC50 [12] was 35 mg/L (≈ 133 µM). For the same compound, the IC50 [13] was over 50 mg/L, the IC50 [14] was over 50 mg/L and the IC50 [15] was over 50 mg/L.
`CC1(C)S[C@@H]2[C@H](NC(=O)[C@H](N)c3ccccc3)C(=O)N2[C@H]1C(=O)O` [AMPICILLIN] gave an inhibition at 10 µg/mL [18] of 100%, an inhibition at 10 µg/mL [19] of 100% and an inhibition at 10 µg/mL [20] of 100%. It also gave an inhibition at 10 µg/mL [21] of 100%, an inhibition at 10 µg/mL [22] of 100% and an inhibition at 10 µg/mL [23] of 100%. The inhibition at 10 µg/mL [24] was 100%.
For `COc1cc([C@@H]2c3cc4c(cc3[C@@H](O[C@@H]3O[C@@H]5CO[C@@H](C)O[C@H]5[C@H](O)[C@H]3O)[C@H]3COC(=O)[C@H]23)OCO4)cc(OC)c1O` [ETOPOSIDE], the IC50 [1] was 4 mg/L (≈ 6.8 µM), the IC50 [2] was 0.05 mg/L (≈ 0.085 µM) and the IC50 [4] was 0.25 mg/L (≈ 0.425 µM). The IC50 [5] was 0.6 mg/L (≈ 1.02 µM), the IC50 [9] was 21 mg/L (≈ 35.7 µM) and the IC50 [10] was 0.12 mg/L (≈ 0.204 µM). For the same compound, the IC50 [11] was 0.85 mg/L (≈ 1.44 µM), the IC50 [12] was 30 mg/L (≈ 51 µM) and the IC50 [13] was 0.38 mg/L (≈ 0.646 µM). It also gave an IC50 [14] of 0.24 mg/L (≈ 0.408 µM) and an IC50 [15] of 6 mg/L (≈ 10.2 µM).
